{"source": "patent US20240131001A1", "about": "“PHARMACEUTICAL APPLICATION OF FUSED RING PHENOLIC COMPOUNDS” (RISEN (SUZHOU) PHARMA TECH CO. LTD., priority 2020, published 2024)", "key": {"PPK": {"system": "PPK", "assay": "PPK inhibitor screening assay (Table 1, PPK isoform not given)", "assay_type": "biochemical, Pseudomonas aeruginosa", "settings": "PPK isoform not stated; for IC50: read-out: IC50 Values for PPK Inhibition", "source_text": "(§1) In order to evaluate the inhibitory effect of the compounds on PPKs, the PPK1, PPK2A, PPK2B and PPK2C were used respectively to test the above compounds using a kit described in an article (Liang Peng et al. & Ning Sun (2020) Discovery and antibacterial study of potential PPK1 inhibitors against uropathogenic E. coli, Journal of Enzyme Inhibition and Medicinal Chemistry, 35:1, 1224-1232)."}, "PPK2B": {"biological_target": "PPK2B (Pseudomonas aeruginosa, UniProt Q9I154)", "sequence (Q9I154 whole entry)": "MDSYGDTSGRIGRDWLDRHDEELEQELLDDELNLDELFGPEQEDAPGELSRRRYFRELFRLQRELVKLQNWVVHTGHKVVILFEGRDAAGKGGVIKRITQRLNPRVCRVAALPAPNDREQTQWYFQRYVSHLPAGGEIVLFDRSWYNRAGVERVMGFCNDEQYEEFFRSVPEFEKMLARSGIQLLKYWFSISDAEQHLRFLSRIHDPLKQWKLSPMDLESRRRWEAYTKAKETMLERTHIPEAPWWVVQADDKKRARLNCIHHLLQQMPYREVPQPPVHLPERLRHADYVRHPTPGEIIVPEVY", "assay": "PPK inhibitor screening assay, PPK2B", "assay_type": "biochemical", "source_text": "as §1"}, "PPK1": {"biological_target": "PPK1 (Pseudomonas aeruginosa, UniProt P0DP44)", "sequence (P0DP44 whole entry)": "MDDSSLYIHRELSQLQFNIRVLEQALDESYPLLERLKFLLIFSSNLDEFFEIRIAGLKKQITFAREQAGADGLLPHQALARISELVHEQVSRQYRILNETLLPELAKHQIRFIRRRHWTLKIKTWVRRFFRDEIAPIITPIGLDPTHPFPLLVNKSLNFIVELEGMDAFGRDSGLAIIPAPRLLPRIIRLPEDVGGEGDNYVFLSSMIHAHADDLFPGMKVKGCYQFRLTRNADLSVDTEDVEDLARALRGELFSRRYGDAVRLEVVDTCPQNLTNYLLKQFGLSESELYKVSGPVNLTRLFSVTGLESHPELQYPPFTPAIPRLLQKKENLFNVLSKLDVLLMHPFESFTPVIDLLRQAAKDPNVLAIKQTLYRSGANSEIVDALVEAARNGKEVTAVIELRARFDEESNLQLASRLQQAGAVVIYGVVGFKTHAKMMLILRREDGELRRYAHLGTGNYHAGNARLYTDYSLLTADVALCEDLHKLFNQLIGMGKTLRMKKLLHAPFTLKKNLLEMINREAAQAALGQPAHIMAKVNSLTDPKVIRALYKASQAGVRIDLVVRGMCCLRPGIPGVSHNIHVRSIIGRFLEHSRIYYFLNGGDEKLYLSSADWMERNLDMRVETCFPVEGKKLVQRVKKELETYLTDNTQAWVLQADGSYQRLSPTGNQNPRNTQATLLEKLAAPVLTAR", "assay": "PPK inhibitor screening assay, PPK1", "assay_type": "biochemical", "source_text": "as §1"}, "PPK2A": {"biological_target": "PPK2A (Pseudomonas aeruginosa, UniProt Q9I6Z1)", "sequence (Q9I6Z1 whole entry)": "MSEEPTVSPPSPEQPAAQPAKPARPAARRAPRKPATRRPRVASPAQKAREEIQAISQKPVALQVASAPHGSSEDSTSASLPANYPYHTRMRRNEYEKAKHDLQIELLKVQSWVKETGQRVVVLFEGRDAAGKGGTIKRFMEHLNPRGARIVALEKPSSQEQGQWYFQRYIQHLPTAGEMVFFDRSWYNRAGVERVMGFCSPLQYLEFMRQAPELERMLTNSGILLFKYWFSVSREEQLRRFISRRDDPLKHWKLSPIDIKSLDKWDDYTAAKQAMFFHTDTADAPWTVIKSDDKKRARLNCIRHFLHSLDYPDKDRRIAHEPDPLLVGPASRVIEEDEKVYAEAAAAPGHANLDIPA", "assay": "PPK inhibitor screening assay, PPK2A", "assay_type": "biochemical", "source_text": "as §1"}, "Pseudomonas aeruginosa [1]": {"system": "Pseudomonas aeruginosa", "assay": "Nematode survival test", "assay_type": "in vivo", "settings": "Caenorhabditis elegans infected with wild-type Pseudomonas aeruginosa, six days", "source_text": "FIG. 3: Effect of Compound 4 on the Survival Rate of Nematodes Infected with Pseudomonas Aeruginosa.\nCaenorhabditis elegans were divided into five groups A, B, C, D, E, and then subjected to modeling respectively. Caenorhabditis elegans in group A and B were infected with wild-type (WT) Pseudomonas aeruginosa. Group A served as the DMSO control group and group B as compound 4 treatment group. Caenorhabditis elegans in groups C and D were infected with Pseudomonas aeruginosa which was knocked out of all PPK (ΔpolyP, Δppk1Δppk2ΔAppk2BΔ ppk 2C), where group C was DMSO control group and group D served as compound 4 treatment group; and group E was infected with Escherichia coli (0P50E. Coli). After modeling, Caenorhabditis elegans in groups A and C were continuously treated with DMSO, and those in groups B, D and E were continuously treated with compound 4. The environment and conditions were consistent across the five groups. Six days later, the survival rate of nematodes in five groups was calculated."}, "PPK2C": {"biological_target": "PPK2C (Pseudomonas aeruginosa, UniProt Q9HYF1)", "sequence (Q9HYF1 whole entry)": "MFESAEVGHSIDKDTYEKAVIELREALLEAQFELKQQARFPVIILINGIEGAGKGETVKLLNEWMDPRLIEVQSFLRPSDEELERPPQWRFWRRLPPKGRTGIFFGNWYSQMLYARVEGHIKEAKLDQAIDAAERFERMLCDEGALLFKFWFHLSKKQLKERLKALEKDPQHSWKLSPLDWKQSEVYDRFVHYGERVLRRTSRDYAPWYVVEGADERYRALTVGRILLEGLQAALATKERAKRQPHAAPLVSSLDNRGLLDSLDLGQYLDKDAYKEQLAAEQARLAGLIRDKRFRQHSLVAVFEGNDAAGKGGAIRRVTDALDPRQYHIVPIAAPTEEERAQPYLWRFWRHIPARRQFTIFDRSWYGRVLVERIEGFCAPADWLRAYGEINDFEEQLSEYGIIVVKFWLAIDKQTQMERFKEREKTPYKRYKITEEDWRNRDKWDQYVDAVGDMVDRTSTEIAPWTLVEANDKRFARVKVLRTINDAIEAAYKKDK", "assay": "PPK inhibitor screening assay, PPK2C", "assay_type": "biochemical", "source_text": "as §1"}, "Pseudomonas aeruginosa [2]": {"system": "Pseudomonas aeruginosa", "assay": "Biofilm testing", "assay_type": "cell-based", "settings": "100 μM compound", "experimental": "FIG. 2: Effect of Compound 4 on Biofilm Formation in Different Pseudomonas Aeruginosa Strains. A: absorbance. The experimental concentration of compound 4 was 100 μM, and “−” or “+” indicates the absence or presence of compound 4; WT: wild-type strain; Δ ppk 1 is the PPK1 knocked out strain; Δ ppk2A, Δppk2B and Δppk2C are the strains with PPK2A, PPK2B, PPK2C knocked out; Δppk1, Δppk2AΔppk2B, Δppk2C are the strains with PPK1, PPK2A, PPK2B and PPK2C knocked out.\nPseudomonas aeruginosa can form biofilm in culture medium. Four groups of LB liquid media were set respectively, among them, group A was inoculated with wild-type Pseudomonas aeruginosa (WT); group B was inoculated with PPK1 knocked out Pseudomonas aeruginosa (A ppkl); group C was inoculated with PPK2A, PPK2B and PPK2C knocked out Pseudomonas aeruginosa (Δ ppk 2A, Δ ppk 2B, Δ ppk 2C); group D was inoculated with PPK1 and PPK2A, PPK2B and PPK2C knocked out Pseudomonas aeruginosa (Δ ppk1, Δ ppk 2Δ A ppk 2B, Δ ppk 2C). After the four groups were infected with Pseudomonas aeruginosa, each group was further divided into two groups, with one group added with DMSO (−) as the control, the other group added with 100 μm compound 4 (+). […] And this biofilm formed in the culture medium of groups A, B, C and D was analyzed using 570 nm visible light."}, "[3]": {"system": "human embryonic kidney cells (HEK239T)", "assay": "HEK cytotoxicity test (Trypan blue staining cell viability assay)", "assay_type": "cell-based", "settings": "for relative viability rate: 100 μM, relative to DMSO; for cytotoxicity: up to 100 μM", "experimental": "FIG. 4: Toxicity Assay of Compound 4 and Compound B on Human Embryonic Kidney Cells (HEK Cells): Relative Viability in the Presence of DMSO (Control), Compound B (100 μM), and Compound 4 (100 μM).\nThe cytotoxicity of the compounds was assessed in cultured human embryonic kidney cells (HEK239T) using the Trypan blue staining cell viability assay. The blank solvent DMSO, compound B, and compound 4 were tested, respectively."}}, "note": "Like-named read-outs stand apart in the source and are kept apart here."}
{"compound": "O=c1oc2cc(O)ccc2c2ccc(O)c(O)c12", "note": "[C, reference compound]", "values": [{"measurement": "IC50", "setting": "PPK", "result": "> 100", "unit": "µM"}]}
{"compound": "O=c1cc(-c2cc(O)c(O)c(O)c2Br)oc2c(O)c(O)ccc12", "note": "[Compound 1]", "values": [{"measurement": "IC50", "setting": "PPK", "result": 6, "unit": "µM"}]}
{"compound": "O=c1oc2c(O)c(O)c(O)c3c(=O)oc4c(O)c(O)cc1c4c23", "note": "[Compound 2]", "values": [{"measurement": "IC50", "setting": "PPK2B", "result": 59, "unit": "µM"}, {"measurement": "IC50", "setting": "PPK", "result": 8, "unit": "µM"}, {"measurement": "IC50", "setting": "PPK1; read-out: IC50 PPK1", "result": 20, "unit": "µM"}]}
{"compound": "O=c1oc2c(O)c(O)cc3c(=O)oc4c(O)c(O)cc1c4c23", "note": "[Compound 3]", "values": [{"measurement": "IC50", "setting": "PPK2A", "result": 50, "unit": "µM"}, {"measurement": "IC50", "setting": "PPK2B", "result": 48, "unit": "µM"}, {"measurement": "IC50", "setting": "PPK", "result": 9, "unit": "µM"}, {"measurement": "IC50", "setting": "PPK1; read-out: IC50 PPK1", "result": 20, "unit": "µM"}]}
{"compound": "O=C1OC2(c3ccccc31)c1ccc(O)c(O)c1Oc1c2ccc(O)c1O", "note": "[Compound 4]", "values": [{"measurement": "mortality of nematodes", "setting": "Pseudomonas aeruginosa [1]", "result": "significantly reduced"}, {"measurement": "IC50", "setting": "PPK2A", "result": 16, "unit": "µM"}, {"measurement": "IC50", "setting": "PPK2C", "result": 165, "unit": "µM"}, {"measurement": "IC50", "setting": "PPK2B", "result": 20, "unit": "µM"}, {"measurement": "IC50", "setting": "PPK", "result": 17, "unit": "µM"}, {"measurement": "IC50", "setting": "PPK1; read-out: IC50 PPK1", "result": 17, "unit": "µM"}, {"measurement": "inhibitory effect on PPK1 and PPK2 seen in biofilm test", "setting": "Pseudomonas aeruginosa [2]; PPK knocked out strains", "result": "not only inhibited PPK1, but also exhibited a good inhibitory effect on PPK2"}, {"measurement": "biofilm formation (570 nm absorbance)", "setting": "Pseudomonas aeruginosa [2]; wild-type Pseudomonas aeruginosa, 37° C., 24 h", "result": "could reduce the formation of biofilm"}, {"measurement": "relative viability rate", "setting": "[3]", "result": "~100", "unit": "%"}, {"measurement": "cytotoxicity", "setting": "[3]", "result": "no cytotoxicity"}]}
{"compound": "O=S1(=O)OC2(c3ccccc31)c1ccc(O)c(O)c1Oc1c2ccc(O)c1O", "note": "[Compound 5]", "values": [{"measurement": "IC50", "setting": "PPK2A", "result": 24, "unit": "µM"}, {"measurement": "IC50", "setting": "PPK2C", "result": 273, "unit": "µM"}, {"measurement": "IC50", "setting": "PPK2B", "result": 31, "unit": "µM"}, {"measurement": "IC50", "setting": "PPK", "result": 26.3, "unit": "µM"}, {"measurement": "IC50", "setting": "PPK1; read-out: IC50 PPK1", "result": 26, "unit": "µM"}]}
{"compound": "O=S1(=O)OC2(c3ccccc31)c1cc(Br)c(O)c(O)c1Oc1c2cc(Br)c(O)c1O", "note": "[Compound 6]", "values": [{"measurement": "IC50", "setting": "PPK", "result": 7.59, "unit": "µM"}]}
{"compound": "O=c1c(O)c(-c2cc(O)c(O)c(O)c2)oc2cc(O)cc(O)c12", "note": "[Compound 7]", "values": [{"measurement": "IC50", "setting": "PPK", "result": 39, "unit": "µM"}]}
{"compound": "O=c1cc(-c2cc(O)c(O)c(O)c2-c2ccsc2)oc2c(O)c(O)ccc12", "note": "[Compound 10]", "values": [{"measurement": "IC50", "setting": "PPK", "result": 36, "unit": "µM"}]}
{"compound": "O=c1c(O)c(-c2ccc(O)cc2O)oc2cc(O)cc(O)c12", "note": "[Compound A, reference compound]", "values": [{"measurement": "IC50 Values for PPK Inhibition", "setting": "PPK", "result": "Inactive"}]}
{"compound": "O=c1oc2c(O)c(O)ccc2c2ccc(O)c(O)c12", "note": "[Compound B, reference compound]", "values": [{"measurement": "IC50", "setting": "PPK", "result": 150, "unit": "µM"}, {"measurement": "IC50", "setting": "PPK1", "result": 120, "unit": "µM"}, {"measurement": "relative viability rate", "setting": "[3]", "result": "approximately 35%"}, {"measurement": "cytotoxicity", "setting": "[3]", "result": "caused a large number of cell death"}]}
{"compound": "Cc1c(C2(c3cc(Br)c(O)c(Br)c3C)OS(=O)(=O)c3ccccc32)cc(Br)c(O)c1Br", "note": "[Compound F, reference compound]", "values": [{"measurement": "IC50 Values for PPK Inhibition", "setting": "PPK", "result": "Inactive"}]}
{"compound": "O=c1c(O)c(-c2ccc(O)c(O)c2)oc2cc(O)cc(O)c12", "note": "[Compound G, reference compound]", "values": [{"measurement": "IC50", "setting": "PPK", "result": 177, "unit": "µM"}]}
{"compound": "C[C@@H]1O[C@@H](OC[C@H]2O[C@@H](Oc3c(-c4ccc(O)c(O)c4)oc4cc(O)cc(O)c4c3=O)[C@H](O)[C@@H](O)[C@@H]2O)[C@H](O)[C@H](O)[C@H]1O", "note": "[Compound H, reference compound]", "values": [{"measurement": "IC50 Values for PPK Inhibition", "setting": "PPK", "result": "Inactive"}]}
{"compound": "O=C1OC2(c3ccc(O)cc3Oc3cc(O)ccc32)c2ccccc21", "note": "[D, reference compound]", "values": [{"measurement": "IC50", "setting": "PPK", "result": "> 200", "unit": "µM"}]}
{"compound": "O=C(O)c1ccc2c(c1)C1(OC2=O)c2ccc(O)cc2Oc2cc(O)ccc21", "note": "[E, reference compound]", "values": [{"measurement": "IC50", "setting": "PPK", "result": "> 200", "unit": "µM"}]}
